Values of other authors as cited in patent US20100093849A1, “OXALIPLATIN PHARMACEUTICAL COMPOSITION WITH ALCOHOLIC SUGAR-BASED BUFFER” (priority 2007, published 2010).
Values joined by “and” are separate entries in the source; they are usually repeats but may differ in a detail not shown here. Equal entries are not always repeated.

Assays:
[1] = Merck Index

SMILES | second dissociation constant, pKa [1] | solubility in water (at 37° C.) | solubility in ether and ethanol (ether and ethanol) | highest concentrations of oxaliplatinum achieved (solvent of the same volumes of 1,2-propanediol and water (WO0115691))
O=C(O)C(=O)O [Oxalic acid] | 4.28 |  |  | 
O=C1[O][Pt]2([NH][C@@H]3CCCC[C@H]3[NH]2)[O]C1=O [Oxaliplatinum, {trans-(1R,2R)-1,2-cyclohexane-diamine}-(oxalato)platinum(II) complex] |  | about 8 mg/ml | practically insoluble | 14.01 mg/mL and 14.33 mg/mL
